In the supplement of paper PMC10307832:

Experiments:
Experiment in all cases: relative viability (nuclei count vs DMSO), 5 days (fraction); higher = more cells survive
IPA-3 + Alpelisib = compound: C1=CC=C2C(=C1)C=CC(=C2SSC3=C(C=CC4=CC=CC=C43)O)O [IPA-3] + Cc1nc(NC(=O)N2CCC[C@H]2C(N)=O)sc1-c1ccnc(C(C)(C)C(F)(F)F)c1 [Alpelisib] (partner 2 µM)
Summary of the method: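 Five library-drug doses in √10 steps were combined with a fixed anchor-drug dose, or a single drug was given alone, by pin tool to lung cancer cell lines in 1536-well plates the day after seeding. Nuclei were stained and counted after 5 days. Relative viability is the nuclei count in treated wells over that in vehicle wells, taken as the median of duplicate plates.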

RAF265 = compound: Cn1c(Nc2ccc(C(F)(F)F)cc2)nc2cc(Oc3ccnc(-c4ncc(C(F)(F)F)[nH]4)c3)ccc21 [RAF265]
Summary of the method: (§1)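 For viability, nuclei in each treated well were divided by nuclei in vehicle wells and the median across plates was taken. Lung cancer cell lines in 1536-well plates were pinned with five library-drug doses (not always all listed) spaced by √10, cultured 5 days without medium change, and imaged at 4× after Hoechst staining, with plates passing only at control CV below 25% and at least one doubling.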

IPA-3 = compound: C1=CC=C2C(=C1)C=CC(=C2SSC3=C(C=CC4=CC=CC=C43)O)O [IPA-3]
Summary of the method: as §1

Doramapimod = compound: Cc1ccc(-n2nc(C(C)(C)C)cc2NC(=O)Nc2ccc(OCCN3CCOCC3)c3ccccc23)cc1 [Doramapimod]
Summary of the method: as §1

NCI-H2085
relative viability (IPA-3 + Alpelisib; first compound 0.2 µM): 1.07 | relative viability (IPA-3 + Alpelisib; first compound 0.6325 µM): 0.919 | relative viability (IPA-3 + Alpelisib; first compound 2 µM): 0.989 | relative viability (IPA-3 + Alpelisib; first compound 6.325 µM): 0.949 | relative viability (IPA-3 + Alpelisib; first compound 20 µM): 0.984 | relative viability (RAF265; 0.01 µM): 1.04 | relative viability (RAF265; 0.03162 µM): 0.904 | relative viability (RAF265; 0.1 µM): 1.05 | relative viability (RAF265; 0.3162 µM): 0.915 | relative viability (RAF265; 1 µM): 0.97 | relative viability (IPA-3; 0.2 µM): 1.07 | relative viability (IPA-3; 0.6325 µM): 0.957 | relative viability (IPA-3; 2 µM): 1.01 | relative viability (IPA-3; 6.325 µM): 0.933 | relative viability (IPA-3; 20 µM): 1.18 | relative viability (Doramapimod; 0.02 µM): 1.04 | relative viability (Doramapimod; 0.06325 µM): 0.975 | relative viability (Doramapimod; 0.2 µM): 1.01 | relative viability (Doramapimod; 0.6325 µM): 1.01 | relative viability (Doramapimod; 2 µM): 0.966

NCI-H358
relative viability (IPA-3 + Alpelisib; first compound 0.2 µM): 1.01 | relative viability (IPA-3 + Alpelisib; first compound 0.6325 µM): 0.843 | relative viability (IPA-3 + Alpelisib; first compound 2 µM): 0.791 | relative viability (IPA-3 + Alpelisib; first compound 6.325 µM): 0.803 | relative viability (IPA-3 + Alpelisib; first compound 20 µM): 1.19 | relative viability (RAF265; 0.01 µM): 1.03 | relative viability (RAF265; 0.03162 µM): 0.903 | relative viability (RAF265; 0.1 µM): 0.686 | relative viability (RAF265; 0.3162 µM): 0.382 | relative viability (RAF265; 1 µM): 0.262 | relative viability (IPA-3; 0.2 µM): 1.06 | relative viability (IPA-3; 0.6325 µM): 0.892 | relative viability (IPA-3; 2 µM): 0.917 | relative viability (IPA-3; 6.325 µM): 0.965 | relative viability (IPA-3; 20 µM): 0.949 | relative viability (Doramapimod; 0.02 µM): 0.873 | relative viability (Doramapimod; 0.06325 µM): 0.881 | relative viability (Doramapimod; 0.2 µM): 0.973 | relative viability (Doramapimod; 0.6325 µM): 0.923 | relative viability (Doramapimod; 2 µM): 0.88

NCI-H1623
relative viability (RAF265; 0.01 µM): 1.06 | relative viability (RAF265; 0.03162 µM): 0.945 | relative viability (RAF265; 0.1 µM): 1.09 | relative viability (RAF265; 0.3162 µM): 0.456 | relative viability (RAF265; 1 µM): 0.798 | relative viability (IPA-3; 0.2 µM): 1.07 | relative viability (IPA-3; 0.6325 µM): 0.943 | relative viability (IPA-3; 2 µM): 0.971 | relative viability (IPA-3; 6.325 µM): 0.951 | relative viability (IPA-3; 20 µM): 0.993 | relative viability (Doramapimod; 0.02 µM): 0.986 | relative viability (Doramapimod; 0.06325 µM): 0.982 | relative viability (Doramapimod; 0.2 µM): 0.944 | relative viability (Doramapimod; 0.6325 µM): 0.775 | relative viability (Doramapimod; 2 µM): 0.88

NCI-H522
relative viability (RAF265; 0.01 µM): 1.15 | relative viability (RAF265; 0.03162 µM): 1.1 | relative viability (RAF265; 0.1 µM): 0.941 | relative viability (RAF265; 0.3162 µM): 0.812 | relative viability (RAF265; 1 µM): 0.961 | relative viability (IPA-3; 0.2 µM): 1.05 | relative viability (IPA-3; 0.6325 µM): 0.889 | relative viability (IPA-3; 2 µM): 0.978 | relative viability (IPA-3; 6.325 µM): 1.07 | relative viability (IPA-3; 20 µM): 1.08 | relative viability (Doramapimod; 0.02 µM): 0.946 | relative viability (Doramapimod; 0.06325 µM): 0.978 | relative viability (Doramapimod; 0.2 µM): 0.79 | relative viability (Doramapimod; 0.6325 µM): 0.925 | relative viability (Doramapimod; 2 µM): 0.86

NCI-H1650
relative viability (RAF265; 0.01 µM): 1.09 | relative viability (RAF265; 0.03162 µM): 0.904 | relative viability (RAF265; 0.1 µM): 1.11 | relative viability (RAF265; 0.3162 µM): 0.75 | relative viability (RAF265; 1 µM): 0.765 | relative viability (IPA-3; 0.2 µM): 1.13 | relative viability (IPA-3; 0.6325 µM): 0.787 | relative viability (IPA-3; 2 µM): 0.931 | relative viability (IPA-3; 6.325 µM): 1.01 | relative viability (IPA-3; 20 µM): 1 | relative viability (Doramapimod; 0.02 µM): 0.998 | relative viability (Doramapimod; 0.06325 µM): 0.99 | relative viability (Doramapimod; 0.2 µM): 1.17 | relative viability (Doramapimod; 0.6325 µM): 1.2 | relative viability (Doramapimod; 2 µM): 0.966

NCI-H1648
relative viability (RAF265; 0.01 µM): 0.936 | relative viability (RAF265; 0.03162 µM): 0.842 | relative viability (RAF265; 0.1 µM): 0.919 | relative viability (RAF265; 0.3162 µM): 0.593 | relative viability (RAF265; 1 µM): 0.589 | relative viability (IPA-3; 0.2 µM): 1.25 | relative viability (IPA-3; 0.6325 µM): 0.889 | relative viability (IPA-3; 2 µM): 1.02 | relative viability (IPA-3; 6.325 µM): 0.65 | relative viability (IPA-3; 20 µM): 0.793 | relative viability (Doramapimod; 0.02 µM): 0.925 | relative viability (Doramapimod; 0.06325 µM): 1.19 | relative viability (Doramapimod; 0.2 µM): 0.898 | relative viability (Doramapimod; 0.6325 µM): 0.835 | relative viability (Doramapimod; 2 µM): 0.719

ChaGo-K-1
relative viability (RAF265; 0.01 µM): 0.977 | relative viability (RAF265; 0.03162 µM): 1.04 | relative viability (RAF265; 0.1 µM): 1.01 | relative viability (RAF265; 0.3162 µM): 0.865 | relative viability (RAF265; 1 µM): 0.789 | relative viability (IPA-3; 0.2 µM): 1.05 | relative viability (IPA-3; 0.6325 µM): 0.96 | relative viability (IPA-3; 2 µM): 0.96 | relative viability (IPA-3; 6.325 µM): 1.06 | relative viability (IPA-3; 20 µM): 1.07 | relative viability (Doramapimod; 0.02 µM): 0.988 | relative viability (Doramapimod; 0.06325 µM): 1.09 | relative viability (Doramapimod; 0.2 µM): 0.983 | relative viability (Doramapimod; 0.6325 µM): 0.975 | relative viability (Doramapimod; 2 µM): 0.916

SW 900
relative viability (RAF265; 0.01 µM): 1.06 | relative viability (RAF265; 0.03162 µM): 0.792 | relative viability (RAF265; 0.1 µM): 0.856 | relative viability (RAF265; 0.3162 µM): 0.679 | relative viability (RAF265; 1 µM): 0.527 | relative viability (IPA-3; 0.2 µM): 1.13 | relative viability (IPA-3; 0.6325 µM): 0.698 | relative viability (IPA-3; 2 µM): 0.686 | relative viability (IPA-3; 6.325 µM): 0.775 | relative viability (IPA-3; 20 µM): 0.775 | relative viability (Doramapimod; 0.02 µM): 0.893 | relative viability (Doramapimod; 0.06325 µM): 1.03 | relative viability (Doramapimod; 0.2 µM): 0.941 | relative viability (Doramapimod; 0.6325 µM): 0.945 | relative viability (Doramapimod; 2 µM): 0.737

NCI-H2342
relative viability (RAF265; 0.01 µM): 0.937 | relative viability (RAF265; 0.03162 µM): 1.06 | relative viability (RAF265; 0.1 µM): 1.04 | relative viability (RAF265; 0.3162 µM): 0.895 | relative viability (RAF265; 1 µM): 0.85 | relative viability (IPA-3; 0.2 µM): 1.07 | relative viability (IPA-3; 0.6325 µM): 1.08 | relative viability (IPA-3; 2 µM): 0.975 | relative viability (IPA-3; 6.325 µM): 1.11 | relative viability (IPA-3; 20 µM): 1.14 | relative viability (Doramapimod; 0.02 µM): 1.05 | relative viability (Doramapimod; 0.06325 µM): 0.918 | relative viability (Doramapimod; 0.2 µM): 0.998 | relative viability (Doramapimod; 0.6325 µM): 1.09 | relative viability (Doramapimod; 2 µM): 0.933
